According to patent US7022839B2, “Heterodimeric conjugates of neomycin-chloramphenicol having an enhanced specificity against RNA targets and its preparation” (Korea Institute of Science and Technology, priority 2001, dated 2006):

Assays:
RRE RNA = experiment: Fluorescence anisotropy competition binding (CRP displacement) to RRE RNA; design: species or system HIV; conditions: competition with CRP probe, 20° C., pH 7.5; read-out: binding force (bond constant KD) against RRE RNA
Protocol: (§1) The RNA of the present invention was prepared with sense DNA of 16S rRNA (sequence listing 1) and an antisense DNA of 16S rRNA (sequence listing 2); a sense DNA of RRE RNA (sequence listing 3) and an antisense DNA of RRE RNA (sequence listing 4); and a sense DNA of TS RNA (sequence listing 5) and an antisense DNA of TS RNA (sequence listing 6). […]
(§2) The paromomycin bonded with tetramethylrhodamine (hereinafter referred to as […]) is used as a luminescence fluorescent probe. The luminescence anisotropy is measured by establishing a thermostat of 20° C. at the Perkin-Elmer LS-50B luminescence spectroscope. The luminescence absorptance of CRP is 510 nm and its luminescence fluorescent is observed at 550 nm. […] The luminescence was measured at an elution buffer using 140 mM NaCl, 5 mM KCl, 1 mM MgCl2, and 20 mM HEPES pH 7.5. […]
(§3) A is the luminescence anisotropy value of CRP when RNA is present,
(§4) A0 is the luminescence anisotropy value of CRP when RNA is not present,
(§5) DA is the difference of luminescence anisotropy value when RNA is not present between various RNA concentrations, […]
(§6) If the newly prepared compound is added to the solution after inducing the bonding of the said RNA and CRP, CRP is separated from RNA by a competitive bonding reaction and the compound to be measured achieves a KD value by bonding with RNA. […]
(§7) [Aminoglycoside]0 is the initial concentration of aminoglycoside to be measured, […]

16S rRNA = experiment: Fluorescence anisotropy competition binding (CRP displacement) to 16S rRNA; conditions: competition with CRP probe, 20° C., pH 7.5; read-out: binding force (bond constant KD) against 16s rRNA
Protocol: as §1, §2, §3, §4, §5, §6, §7

TS RNA = experiment: Fluorescence anisotropy competition binding (CRP displacement) to TS RNA; conditions: competition with CRP probe, 20° C., pH 7.5; read-out: binding force (bond constant KD) against TS RNA
Protocol: as §1, §2, §3, §4, §5, §6, §7

Measured: Kd

Neomycin [reference compound]
> 2000 nM: RRE RNA | 16S rRNA | TS RNA
